Experimental data: PubChem BioAssay AID248 (DTP/NCI, 2004)
“And” between values parts separate entries of the source, which are not always exact repeats. Equal values may be shown once. Toxic doses and inconclusive results are not listed. Rule as the data show it: active = T/C of 150% or more; inactive = T/C below 125%.

Tested on: L1210 leukemia ip in BDF1 mice, survival T/C
Test: NCI In Vivo Anticancer Drug Screen. Data for tumor model L1210 Leukemia (intraperitoneal) in B6D2F1 (BDF1) mice
Settings: endpoint: mean survival time, higher = longer survival
How it was run: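 Mice bearing the transplanted tumor received compound or vehicle. Survival of the treated group was divided by that of the vehicle-treated control group to give the ratio.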

[1] = dose: 100.0 mg/kg/injection, schedule: Q04DX003 (ip), vehicle: saline with Tween-80
[2] = dose: 25.0 mg/kg/injection, schedule: Q01DX001 (ip), vehicle: saline with Tween-80
[3] = dose: 50.0 mg/kg/injection, schedule: Q01DX001 (ip), vehicle: saline with Tween-80
[4] = dose: 100.0 mg/kg/injection, schedule: Q01DX001 (ip), vehicle: saline with Tween-80
[5] = dose: 100.0 mg/kg/injection, schedule: Q04DX002 (ip), vehicle: Klucel (hydroxypropylcellulose) (HPC)
[6] = dose: 200.0 mg/kg/injection, schedule: Q04DX002 (ip), vehicle: Klucel (hydroxypropylcellulose) (HPC)
[7] = dose: 400.0 mg/kg/injection, schedule: Q04DX002 (ip), vehicle: Klucel (hydroxypropylcellulose) (HPC)
[8] = dose: 6.25 mg/kg/injection, schedule: Q01DX009 (ip), vehicle: saline
[9] = dose: 12.5 mg/kg/injection, schedule: Q01DX009 (ip), vehicle: saline
[10] = dose: 12.5 mg/kg/injection, schedule: Q04DX003 (ip), vehicle: saline
[11] = dose: 25.0 mg/kg/injection, schedule: Q01DX009 (ip), vehicle: saline
[12] = dose: 25.0 mg/kg/injection, schedule: Q04DX003 (ip), vehicle: saline
[13] = dose: 100.0 mg/kg/injection, schedule: Q01DX001 (ip), vehicle: saline
[14] = dose: 200.0 mg/kg/injection, schedule: Q01DX001 (ip), vehicle: saline
[15] = dose: 400.0 mg/kg/injection, schedule: Q01DX001 (ip), vehicle: saline
[16] = dose: 100.0 mg/kg/injection, schedule: Q01DX009 (ip), vehicle: saline with Tween-80
[17] = dose: 200.0 mg/kg/injection, schedule: Q01DX009 (ip), vehicle: saline with Tween-80
[18] = dose: 50.0 mg/kg/injection, schedule: Q01DX009 (ip), vehicle: saline
[19] = dose: 50.0 mg/kg/injection, schedule: Q04DX003 (ip), vehicle: saline
[20] = dose: 100.0 mg/kg/injection, schedule: Q04DX003 (ip), vehicle: saline
[21] = dose: 200.0 mg/kg/injection, schedule: Q04DX003 (ip), vehicle: saline

Measured: T/C

O=C(/C=C/c1cccc([N+](=O)[O-])c1)CCl
inactive: dose: 25.0 mg/kg/injection, schedule: Q04DX003 (ip), vehicle: saline with Tween-80 110 % of control | dose: 50.0 mg/kg/injection, schedule: Q04DX003 (ip), vehicle: saline with Tween-80 105 % of control | [1] 103 % of control and 104 % of control

COc1cc2c(c(OC)c1OC)-c1ccc(SC)c(=O)cc1C(N=C(NC1OCC(OC(C)=O)C(OC(C)=O)C1OC(C)=O)SN(NC(=O)OCc1ccccc1)C(=O)OCc1ccccc1)CC2 (stereo not drawn)
inactive: [2] 95 % of control | [3] 95 % of control | [4] 100 % of control

O=C(O)C1C(c2ccccc2)C2(c3ccccc3)C(=O)C1(c1ccccc1)C(c1ccccc1)=C2c1ccccc1 (stereo not drawn)
inactive: [2] 98 % of control | [3] 88 % of control | [4] 91 % of control | dose: 200.0 mg/kg/injection, schedule: Q01DX001 (ip), vehicle: saline with Tween-80 90 % of control | dose: 400.0 mg/kg/injection, schedule: Q01DX001 (ip), vehicle: saline with Tween-80 90 % of control

COC(=O)c1ccccc1NC(=O)c1cccc(Cl)c1
inactive: dose: 100.0 mg/kg/injection, schedule: Q01DX009 (ip), vehicle: Klucel (hydroxypropylcellulose) (HPC) 114 % of control | dose: 200.0 mg/kg/injection, schedule: Q01DX009 (ip), vehicle: Klucel (hydroxypropylcellulose) (HPC) 118 % of control | dose: 400.0 mg/kg/injection, schedule: Q01DX009 (ip), vehicle: Klucel (hydroxypropylcellulose) (HPC) 102 % of control

O=C1C=C(O)C2C3C=CC(CC3)C12 (stereo not drawn)
inactive: [5] 106 % of control | [6] 106 % of control | [7] 92 % of control

C1CN2CCC1C1(C2)SSC2(CN3CCC2CC3)S1 (stereo not drawn)
inactive: [8] 107 % of control | dose: 6.25 mg/kg/injection, schedule: Q04DX003 (ip), vehicle: saline 96 % of control | [9] 96 % of control | [10] 107 % of control | [11] 119 % of control | [12] 94 % of control

CC(=O)C(=O)C1=C2CCCN2CCc2cc3c(cc21)OCO3
inactive: [5] 111 % of control | [6] 114 % of control | [7] 118 % of control

O=C1OC(=O)C2C1C1(Cl)CC2(Cl)C(Cl)=C1Cl (stereo not drawn)
inactive: dose: 75.0 mg/kg/injection, schedule: Q01DX009 (ip), vehicle: other 101 % of control | dose: 150.0 mg/kg/injection, schedule: Q01DX009 (ip), vehicle: other 88 % of control

CC(C)(C)NP(c1ccccc1)c1ccccc1
inactive: [13] 101 % of control | [14] 104 % of control | [15] 98 % of control

CCCCCCCCCCCCOC(=O)OCCCCCCCCCCCC
inactive: [16] 91 % of control | [1] 97 % of control | [17] 91 % of control | dose: 200.0 mg/kg/injection, schedule: Q04DX003 (ip), vehicle: saline with Tween-80 101 % of control | dose: 400.0 mg/kg/injection, schedule: Q04DX003 (ip), vehicle: saline with Tween-80 101 % of control

CC/C(=C\c1ccccc1)[N+](=O)[O-]
inactive: dose: 25.0 mg/kg/injection, schedule: Q01DX009 (ip), vehicle: Klucel (hydroxypropylcellulose) (HPC) 102 % of control | dose: 25.0 mg/kg/injection, schedule: Q04DX003 (ip), vehicle: Klucel (hydroxypropylcellulose) (HPC) 97 % of control | dose: 50.0 mg/kg/injection, schedule: Q01DX009 (ip), vehicle: Klucel (hydroxypropylcellulose) (HPC) 98 % of control | dose: 50.0 mg/kg/injection, schedule: Q04DX003 (ip), vehicle: Klucel (hydroxypropylcellulose) (HPC) 90 % of control | dose: 100.0 mg/kg/injection, schedule: Q04DX003 (ip), vehicle: Klucel (hydroxypropylcellulose) (HPC) 103 % of control

CN1C(=O)c2ccccc2NC(=O)C12OC2c1ccccc1 (stereo not drawn)
inactive: [13] 101 % of control | [14] 101 % of control | [15] 97 % of control

O=C1c2ccccc2C(=O)C1c1nc2ccccc2cc1O
inactive: dose: 12.5 mg/kg/injection, schedule: Q01DX009 (ip), vehicle: saline with Tween-80 94 % of control | dose: 12.5 mg/kg/injection, schedule: Q04DX002 (ip), vehicle: saline with Tween-80 96 % of control | dose: 25.0 mg/kg/injection, schedule: Q01DX009 (ip), vehicle: saline with Tween-80 96 % of control and 102 % of control | dose: 25.0 mg/kg/injection, schedule: Q04DX002 (ip), vehicle: saline with Tween-80 104 % of control | dose: 50.0 mg/kg/injection, schedule: Q01DX009 (ip), vehicle: saline with Tween-80 102 % of control | dose: 50.0 mg/kg/injection, schedule: Q04DX002 (ip), vehicle: saline with Tween-80 89 % of control | dose: 115.0 mg/kg/injection, schedule: Q01DX009 (ip), vehicle: saline with Tween-80 93 % of control | dose: 170.0 mg/kg/injection, schedule: Q01DX009 (ip), vehicle: saline with Tween-80 100 % of control

CCCCOCCCNCC(=O)Nc1ccc(S(=O)(=O)c2ccc(NC(=O)CNCCCOCCCC)cc2)cc1
inactive: [13] 89 % of control | [14] 97 % of control | [15] 108 % of control

Cc1ccc2c3csc4ccccc4c-3nc2c1
inactive: [8] 101 % of control | [9] 95 % of control | [10] 93 % of control | [12] 92 % of control

CCOC(=O)N1N=C([P+](c2ccccc2)(c2ccccc2)c2ccccc2)CC1(c1ccccc1)c1ccccc1
inactive: dose: 25.0 mg/kg/injection, schedule: Q01DX001 (ip), vehicle: saline 98 % of control | dose: 50.0 mg/kg/injection, schedule: Q01DX001 (ip), vehicle: saline 104 % of control | [13] 104 % of control

Cn1nc(N)c2cc3c(=O)[nH]cnc3nc21
inactive: dose: 100.0 mg/kg/injection, schedule: Q01DX001 (ip), vehicle: Klucel (hydroxypropylcellulose) (HPC) 96 % of control | dose: 200.0 mg/kg/injection, schedule: Q01DX001 (ip), vehicle: Klucel (hydroxypropylcellulose) (HPC) 104 % of control | dose: 400.0 mg/kg/injection, schedule: Q01DX001 (ip), vehicle: Klucel (hydroxypropylcellulose) (HPC) 101 % of control

CC(=O)NN=C(C)C
inactive: [11] 102 % of control | [18] 111 % of control | [19] 99 % of control | [20] 99 % of control | [21] 99 % of control

CCOC(=S)SCCSC(=S)OCC
inactive: [13] 105 % of control | [14] 100 % of control | [15] 97 % of control

CCCN=C(N)C(N)=NCCC
inactive: dose: 100.0 mg/kg/injection, schedule: Q01DX009 (ip), vehicle: saline 91 % of control | [20] 98 % of control | dose: 200.0 mg/kg/injection, schedule: Q01DX009 (ip), vehicle: saline 92 % of control | [21] 98 % of control | dose: 400.0 mg/kg/injection, schedule: Q04DX003 (ip), vehicle: saline 91 % of control

O=C(O)CCOc1ccccc1Cl
inactive: [16] 91 % of control | [5] 98 % of control | [17] 95 % of control | [6] 95 % of control | dose: 400.0 mg/kg/injection, schedule: Q01DX009 (ip), vehicle: saline with Tween-80 93 % of control | [7] 106 % of control

CCN(CC)Cc1cc(Nc2cc(C)nc(/N=C(\N)Nc3cc(Cl)cc(Cl)c3)n2)ccc1O
inactive: [1] 98 % of control

ClCCN1CCOCC1
inactive: [11] 97 % of control | [12] 93 % of control and 106 % of control | [18] 100 % of control | [19] 93 % of control and 111 % of control | [20] 98 % of control and 104 % of control and 108 % of control

NC(N)=NCCCNCCCN=C(N)N
inactive: dose: 17.5 mg/kg/injection, schedule: Q01DX Z (oral), vehicle: saline 100 % of control | dose: 35.0 mg/kg/injection, schedule: Q01DX Z (oral), vehicle: saline 101 % of control | dose: 70.0 mg/kg/injection, schedule: Q01DX Z (oral), vehicle: saline 114 % of control | dose: 140.0 mg/kg/injection, schedule: Q01DX Z (oral), vehicle: saline 117 % of control

[I][Hg][CH2]C1COCC([CH2][Hg][I])O1.[I][Hg][CH2]C1COCC([CH2][Hg][I])O1 (stereo not drawn)
inactive: dose: 20.0 mg/kg/injection, schedule: Q04DX003 (ip), vehicle: carboxymethylcellulose (CMC) 100 % of control | dose: 40.0 mg/kg/injection, schedule: Q01DX001 (ip), vehicle: carboxymethylcellulose (CMC) 91 % of control | dose: 40.0 mg/kg/injection, schedule: Q04DX003 (ip), vehicle: carboxymethylcellulose (CMC) 105 % of control | dose: 80.0 mg/kg/injection, schedule: Q01DX001 (ip), vehicle: carboxymethylcellulose (CMC) 93 % of control
